≈ marks a conversion by molar mass, not a printed value.
Columns and labels:
[1] = test system: Mycobacterium tuberculosis; format: functional, H37Rv; settings: dose 100 mg/kg; route po; time 4 weeks
[2] = test system: Mycobacterium tuberculosis; format: functional, H37Rv; settings: dose 20-200 mg/kg; route po; time 4 weeks
[3] = test system: Mycobacterium tuberculosis; format: functional; settings: H37Rv, 168 h, time 7 day
[4] = target: Voltage-gated inwardly rectifying potassium channel KCNH2 (Homo sapiens, UniProt Q12809)
[5] = Protein binding in human plasma incubated for 5 hrs by LC-MS/MS analysis; format: ADME, cell-free; settings: read-out: PPB (converted)
[6] = Stability in mouse liver microsome assessed as half life by Reverse-phase HPLC analysis; format: ADME; settings: liver microsomes
[7] = Solubility of the compound in PBS at pH 7.4 incubated for 24 hrs by LC-MS analysis; format: physicochemical
[8] = test system: Mycobacterium tuberculosis; format: functional, H37Rv; settings: dose 10 mg/kg; route po; time 2 weeks
[9] = test system: Mycobacterium tuberculosis; experiment: Antibacterial activity against Mycobacterium tuberculosis infected in macrophage assessed as inhibition of bacterial growth; format: functional, organism-based
[10] = Metabolic stability in CD-1 mouse liver microsomes assessed as half life measured for 5 to 40 mins by LC-MS/MS analysis; format: ADME, Microsome; settings: time 5-40 min
[11] = test system: Mycobacterium tuberculosis; format: functional, H37Rv; settings: dose 400 mg/kg; route sc; time 3 weeks
[12] = test system: Mycobacterium tuberculosis; format: functional; settings: H37Rv, 336 h, time 14 day
[13] = test system: Mycobacterium tuberculosis; format: functional, H37Rv; settings: dose 18 mg/kg; time 8 day
[14] = test system: Mycobacterium tuberculosis; format: functional; settings: H37Rv, time 6 day
[15] = test system: Mycobacterium tuberculosis; experiment: Antibacterial activity against Mycobacterium tuberculosis infected in macrophage assessed as inhibition of bacterial growth in presence of Ethionamide; format: functional, organism-based
[16] = Half life in mouse; format: ADME, organism-based; settings: in vivo
[17] = test system: Mycobacterium tuberculosis; experiment: Antibacterial activity against Mycobacterium tuberculosis Beijing strain in acute Mtb infection BALB/c mouse model assessed as reduction in log10 CFU in lungs at 50 mg/kg, po for 3 weeks; format: functional
[18] = test system: Mycobacterium tuberculosis; format: functional; settings: H37Rv
[19] = test system: Mycobacterium tuberculosis; experiment: microbe, parasite or virus in culture; settings: H37Rv
Description: Antibacterial activity against Mycobacterium tuberculosis H37Rv assessed as inhibition of bacterial growth

[20] = Oral bioavailability in Sprague-Dawley rat at 5 mg/kg measured for 0.083 to 24 hrs by LC-MS/MS analysis; format: ADME, organism-based; settings: in vivo, time 0.083-24 hrs
[21] = test system: Mycobacterium tuberculosis; format: functional, H37Rv; settings: dose 50 mg/kg; route po; time 15 day
HepG2 = experiment: Cytotoxicity against human HepG2 cells; format: functional
Cytochrome P450 1A2 = target: T1, Cytochrome P450 1A2 (Homo sapiens, UniProt P05177); experiment: Inhibition of CYP1A2 in human liver microsome in presence of NADPH measured after 10 mins by LC/MS/MS analysis; format: microsomes
T1 sequence (P05177 whole entry): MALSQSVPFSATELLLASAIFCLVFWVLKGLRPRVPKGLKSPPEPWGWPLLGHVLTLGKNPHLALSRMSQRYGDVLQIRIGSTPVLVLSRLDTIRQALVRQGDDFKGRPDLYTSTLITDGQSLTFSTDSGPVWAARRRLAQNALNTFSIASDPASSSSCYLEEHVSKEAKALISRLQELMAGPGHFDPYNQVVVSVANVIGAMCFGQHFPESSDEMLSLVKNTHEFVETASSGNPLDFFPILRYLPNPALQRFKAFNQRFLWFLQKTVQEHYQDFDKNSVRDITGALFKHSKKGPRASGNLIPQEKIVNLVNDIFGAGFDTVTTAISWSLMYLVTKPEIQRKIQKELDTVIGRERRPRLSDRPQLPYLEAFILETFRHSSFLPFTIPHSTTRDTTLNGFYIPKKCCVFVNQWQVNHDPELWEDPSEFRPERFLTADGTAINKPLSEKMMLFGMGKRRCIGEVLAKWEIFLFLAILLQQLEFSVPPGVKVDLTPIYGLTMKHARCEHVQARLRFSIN

[22] = Metabolic stability in human liver microsomes assessed as half life in presence of NADPH regenerating system measured for 5 to 60 mins by LC/MS/MS analysis; format: ADME, Microsome; settings: time 5-60 min
Cytochrome P450 2C19 = Cytochrome P450 2C19 (Homo sapiens, UniProt P33261); experiment: Inhibition of CYP2C19 in human liver microsome in presence of NADPH measured after 10 mins by LC/MS/MS analysis; format: ADME, microsomes
[23] = Inhibition of Mycobacterium tuberculosis Shikimate dehydrogenase expressed in Escherichia coli BL21 using shikimic acid as substrate incubated for 60 mins in presence of NADP+ by enzymatic assay
Cytochrome P450 2C9 = Cytochrome P450 2C9 (Homo sapiens, UniProt P11712); experiment: Inhibition of CYP2C9 in human liver microsome in presence of NADPH measured after 10 mins by LC/MS/MS analysis; format: ADME, microsomes
[24] = Metabolic stability in mouse liver microsomes assessed as half life in presence of NADPH regenerating system measured for 5 to 60 mins by LC/MS/MS analysis; format: ADME, Microsome; settings: time 5-60 min
[25] = Half life in Sprague-Dawley rat at 5 mg/kg, po measured for 0.083 to 24 hrs by LC-MS/MS analysis; format: ADME, organism-based; settings: in vivo, time 0.083-24 hrs
[26] = Metabolic stability in rat liver microsomes assessed as half life in presence of NADPH regenerating system measured for 5 to 60 mins by LC/MS/MS analysis; format: ADME, Microsome; settings: time 5-60 min
[27] = test system: Mycobacterium tuberculosis; experiment: Antibacterial activity against Mycobacterium tuberculosis in acute Mtb infection mouse model assessed as reduction in log10 CFU at 25 mg/kg treated for 3 weeks; format: functional
[28] = Inhibition of bacterial DdlA; parameters: species or system Bacteria
[29] = test system: Mycobacterium tuberculosis; format: functional; settings: H37Rv, 336 h, time 14 day; remark: listed apart in the source
[30] = test system: Mycobacterium tuberculosis; experiment: Antibacterial activity against Mycobacterium tuberculosis in acute Mtb infection mouse model assessed as reduction in log10 CFU at 200 mg/kg for 3 weeks in presence of Rifampicin; format: functional
[31] = test system: Mycobacterium tuberculosis; format: functional; settings: H37Rv, 336 h, time 14 day; remark: listed apart in the source
[32] = test system: Mycobacterium tuberculosis; experiment: Antibacterial activity against Mycobacterium tuberculosis in acute Mtb infection mouse model assessed as reduction in log10 CFU at 200 mg/kg for 3 weeks; format: functional
[33] = test system: Mycobacterium tuberculosis; format: functional; settings: H37Rv, 336 h, time 14 day; remark: listed apart in the source
[34] = test system: Mycobacterium tuberculosis; experiment: Antibacterial activity against Mycobacterium tuberculosis in acute Mtb infection 129sv dehydropeptidase-1 KO mouse model assessed as reduction in log10 CFU administered twice daily for 6 days in presence of clavulanate; format: functional; settings: time 6 day
[35] = test system: Mycobacterium tuberculosis; experiment: Antibacterial activity against Mycobacterium tuberculosis in acute Mtb infection 129sv dehydropeptidase-1 KO mouse model assessed as reduction in log10 CFU administered orally twice daily for 6 days; format: functional; settings: route po; time 6 day
[36] = test system: Mycobacterium tuberculosis; experiment: Antibacterial activity against Mycobacterium tuberculosis in acute Mtb infection BALB/c mouse model assessed as reduction in log10 CFU treated for 6 days; format: functional; settings: time 6 day
[37] = test system: Mycobacterium tuberculosis; format: functional, THP-1; settings: H37Rv
[38] = test system: Mycobacterium tuberculosis; experiment: Antibacterial activity against Mycobacterium tuberculosis in acute Mtb infection 129sv dehydropeptidase-1 KO mouse model assessed as reduction in log10 CFU administered subcutaneously twice daily for 6 days; format: functional; settings: route sc; time 6 day
[39] = test system: Mycobacterium tuberculosis; format: functional, THP-1; settings: H37Rv; remark: listed apart in the source

Voltage-gated inwardly rectifying potassium channel KCNH2, sequence (Q12809 whole entry): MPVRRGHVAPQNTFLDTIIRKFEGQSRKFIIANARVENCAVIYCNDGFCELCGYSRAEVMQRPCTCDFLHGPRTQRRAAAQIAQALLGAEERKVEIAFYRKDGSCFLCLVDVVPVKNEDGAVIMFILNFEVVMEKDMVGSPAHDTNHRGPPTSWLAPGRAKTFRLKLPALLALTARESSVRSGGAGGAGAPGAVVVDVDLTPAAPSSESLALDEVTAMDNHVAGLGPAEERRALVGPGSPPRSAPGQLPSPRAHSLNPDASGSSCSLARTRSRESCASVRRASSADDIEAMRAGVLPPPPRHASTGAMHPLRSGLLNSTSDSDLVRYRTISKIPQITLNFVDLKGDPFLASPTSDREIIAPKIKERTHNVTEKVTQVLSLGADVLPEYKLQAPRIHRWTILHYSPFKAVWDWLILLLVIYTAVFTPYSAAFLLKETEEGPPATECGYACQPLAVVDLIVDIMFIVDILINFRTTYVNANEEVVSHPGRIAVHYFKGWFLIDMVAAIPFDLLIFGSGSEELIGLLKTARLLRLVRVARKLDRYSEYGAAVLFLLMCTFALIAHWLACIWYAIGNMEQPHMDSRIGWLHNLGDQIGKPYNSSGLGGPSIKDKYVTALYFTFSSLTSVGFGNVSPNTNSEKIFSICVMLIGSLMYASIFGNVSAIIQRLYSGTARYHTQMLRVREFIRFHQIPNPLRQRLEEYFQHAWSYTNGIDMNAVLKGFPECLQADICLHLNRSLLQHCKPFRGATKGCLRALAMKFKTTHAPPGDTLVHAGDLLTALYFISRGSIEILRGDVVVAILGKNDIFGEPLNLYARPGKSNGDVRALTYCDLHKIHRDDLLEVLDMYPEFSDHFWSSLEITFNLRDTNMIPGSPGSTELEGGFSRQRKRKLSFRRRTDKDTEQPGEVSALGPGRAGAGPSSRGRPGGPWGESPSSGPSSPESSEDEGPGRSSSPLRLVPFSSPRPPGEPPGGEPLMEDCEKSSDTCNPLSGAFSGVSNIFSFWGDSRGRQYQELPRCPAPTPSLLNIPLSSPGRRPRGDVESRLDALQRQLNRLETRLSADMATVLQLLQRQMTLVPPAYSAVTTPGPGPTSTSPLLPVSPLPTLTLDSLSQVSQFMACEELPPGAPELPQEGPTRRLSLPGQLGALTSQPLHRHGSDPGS
Cytochrome P450 2C19, sequence (P33261 whole entry): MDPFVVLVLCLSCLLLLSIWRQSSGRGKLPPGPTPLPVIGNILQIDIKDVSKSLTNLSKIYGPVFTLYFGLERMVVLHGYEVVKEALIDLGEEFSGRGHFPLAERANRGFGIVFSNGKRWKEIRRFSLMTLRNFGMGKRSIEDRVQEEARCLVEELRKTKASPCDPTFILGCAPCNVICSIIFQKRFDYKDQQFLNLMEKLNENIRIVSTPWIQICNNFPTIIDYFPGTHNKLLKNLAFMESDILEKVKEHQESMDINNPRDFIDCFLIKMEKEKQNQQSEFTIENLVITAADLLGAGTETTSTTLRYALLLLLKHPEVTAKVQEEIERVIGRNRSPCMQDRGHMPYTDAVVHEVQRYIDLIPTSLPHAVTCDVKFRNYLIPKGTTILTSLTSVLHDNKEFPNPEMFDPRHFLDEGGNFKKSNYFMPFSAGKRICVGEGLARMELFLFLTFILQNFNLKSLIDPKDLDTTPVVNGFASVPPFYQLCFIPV
Cytochrome P450 2C9, sequence (P11712 whole entry): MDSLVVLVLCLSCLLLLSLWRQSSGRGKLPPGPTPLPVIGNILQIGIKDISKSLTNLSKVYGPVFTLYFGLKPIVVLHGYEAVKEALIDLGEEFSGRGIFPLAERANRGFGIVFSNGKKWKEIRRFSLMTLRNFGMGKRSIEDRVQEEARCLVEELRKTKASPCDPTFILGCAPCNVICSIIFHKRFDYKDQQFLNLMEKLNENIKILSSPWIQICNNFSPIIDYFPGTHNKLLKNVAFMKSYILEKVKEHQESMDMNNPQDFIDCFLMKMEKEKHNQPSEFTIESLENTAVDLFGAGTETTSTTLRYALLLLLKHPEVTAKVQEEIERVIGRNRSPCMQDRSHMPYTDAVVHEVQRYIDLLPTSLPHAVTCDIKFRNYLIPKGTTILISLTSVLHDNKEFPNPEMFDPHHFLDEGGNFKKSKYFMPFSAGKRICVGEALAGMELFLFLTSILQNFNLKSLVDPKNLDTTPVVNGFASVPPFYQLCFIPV

Compound `Cc1n[nH]c2ccc(NS(=O)(=O)CCCCF)cc12` has an Activity [1] of 2 log10CFU, an Activity [2] of over 2 log10CFU and an MIC [3] of 0.2 µM (≈ 0.0571 µg/mL). For the same compound, the IC50 [4] was over 50000 nM, the fraction unbound at 5 h [5] was 0.23 and the half-life [6] was 28 min.
`O=C(NCCC(F)(F)F)c1ccc(-c2noc(C3CC3)n2)cc1` gave a solubility at 24 h [7] of 30 µM (≈ 9.76 µg/mL), an Activity [8] of over 2 log10CFU and an EC50 [9] of 72 nM. The half-life [10] was 19 min.
`CSC1=C(C(=O)[O-])N2C(=O)[C@H]([C@@H](C)O)[C@H]2[C@H]1C.[Na+]` showed an Activity [11] of under 2 log10CFU and an MIC90 [12] of 0.9 µM.
With `CCCCS(=O)(=O)Nc1ccc2[nH]ncc2c1` the Activity [13] was 2 log10CFU and the MIC [14] was 1.2 µM (≈ 0.304 µg/mL).
`O=C(CCC(F)(F)F)N1CCC2(CC1)CC(c1ccccc1)=NO2` showed an EC50 [15] of 20 nM, a half-life [16] of 19 min and an Activity [17] of 1 log10CFU. For the same compound, the MIC [18] was 0.3 µM (≈ 0.102 µg/mL).
`COc1ccc(OCc2nn3c(-c4ccc(Br)cc4)nnc3s2)cc1` showed an MIC [19] of 4.8 µM (≈ 2 µg/mL), a bioavailability [20] of 14% and an Activity [21] of 1.7 log10CFU. The CC50 (HepG2) was 50000 nM, the IC50 (Cytochrome P450 1A2) was 560 nM and the half-life [22] was 1.1 min. It also gave an IC50 (Cytochrome P450 2C19) of 560 nM, an IC50 [23] of 29000 nM and an IC50 (Cytochrome P450 2C9) of 560 nM. It also gave a half-life [24] of 1.2 min, a half-life [25] of 66 min and a half-life [26] of 17 min.
`OC1(c2ccc(OC(F)F)cc2)C[N+](c2ccccc2)=C2CCCCN21.[Br-]` (centres undefined) gave an MIC [19] of 1.1 µM, a CC50 (HepG2) of 263000 nM and an Activity [27] of 1.2 log10CFU. For the same compound, the IC50 [28] was 6200 nM.
In the case of `C[C@@H](O)[C@H]1C(=O)N2C(C(=O)[O-])=C(SC3Cn4cnc[n+]4C3)[C@H](C)[C@H]12` (some centres undefined) [BIAPENEM], the MIC90 [29] is reported as 1.7 µM (≈ 0.596 µg/mL), the half-life [16] is reported as 17.4 min and the Activity [30] is reported as 8.6 log10CFU. The MIC90 [31] was 7.1 µM (≈ 2.49 µg/mL) and the Activity [32] was 5.3 log10CFU.
`C[C@@H](O)[C@H]1C(=O)N2C(C(=O)O)=C(S[C@@H]3CN[C@H](C(=O)N(C)C)C3)[C@H](C)[C@H]12` [MEROPENEM] showed an Activity [11] of under 2 log10CFU, an MIC90 [33] of 10 µM (≈ 3.83 µg/mL) and a half-life [16] of 27.6 min. It also gave an Activity [34] of 1.7 log10CFU.
With `CO[C@H]1CCC[C@H]2C1=C(C(=O)OC(C)OC(=O)OC1CCCCC1)N1C(=O)[C@H]([C@@H](C)O)[C@@H]21` (some centres undefined) [SANFETRINEM CILEXETIL] the Activity [35] was 1.4 log10CFU.
In the case of `CO[C@H]1CCC[C@H]2C1=C(C(=O)[O-])N1C(=O)[C@H]([C@@H](C)O)[C@@H]21.[Na+]` [SANFETRINEM SODIUM], the MIC [19] is reported as 5 µM, the Activity [36] is reported as 1.7 log10CFU and the MIC [37] is reported as 5 µM. The Activity [38] was 1.7 log10CFU and the MIC90 [39] was 5.6 µM.
